Tests used:
Type in all cases: in vivo
[1] = test system: Stagonospora nodorum (also known as Septoria nodorum); experiment: Test B: wheat seedlings sprayed with test suspension, inoculated with Stagonospora nodorum (wheat glume blotch), visual disease rating
Procedure, shortened: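 Compounds in acetone/water 50/50 with 250 ppm Trem 014 were sprayed to run-off on wheat seedlings at 10, 40, 50 or 200 ppm (40–800 g ai/ha). Plants were inoculated next day, held 48 h saturated at 20 °C, then 6 days in a growth chamber at 20 °C. Visual rating 0–100% disease control relative to controls.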

Botrytis cinerea = experiment: Test A: tomato seedlings sprayed with test suspension, inoculated with Botrytis cinerea (gray mold), visual disease rating
Text: General protocol for preparing test suspensions for Tests A-E: the test compounds were first dissolved in acetone in an amount equal to 3% of the final volume and then suspended at the desired concentration (in ppm) in acetone and purified water (50/50 mix by volume) containing 250 ppm of the surfactant Trem® 014 (polyhydric alcohol esters). The resulting test suspensions were then used in Tests A-E. Samples were applied to plants at either a 10 ppm (**), 40 ppm, 50 ppm (*) or 200 ppm (#) test solution to the point of run-off on the test plants with the equivalent of a rate of 40 g ai/ha, 160 g ai/ha, 200 g ai/ha, or 800 g ai/ha, respectively.
The test suspension was sprayed to the point of run-off on tomato seedlings. The following day the seedlings were inoculated with a spore suspension of Botrytis cinerea (the causal agent of gray mold on many crops) and incubated in a saturated atmosphere at 20° C. for 48 h, and moved to a growth chamber at 27° C. for 2 days, after which time visual disease ratings were made.
Results for Tests A-E are given in Table A. In the Table, a rating of 100 indicates 100% disease control and a rating of 0 indicates no disease control (relative to the controls). A dash (-) indicates no test results.

[2] = test system: Puccinia recondite f. sp. tritici; experiment: Test D: wheat seedlings sprayed with test suspension, inoculated with Puccinia recondite f. sp. tritici (wheat leaf rust), visual disease rating
Procedure, shortened: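 Wheat seedlings were sprayed to run-off with compound suspended in 50/50 acetone–water containing 250 ppm Trem 014, at 10-200 ppm (40-800 g ai/ha). They were inoculated with rust spores the next day, then kept 24 h saturated at 20 °C and 6 days at 20 °C. Scores are visual % disease control versus untreated controls.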

Septoria tritici = experiment: Test C: wheat seedlings sprayed with test suspension, inoculated with Septoria tritici (wheat leaf blotch), visual disease rating
Procedure, shortened: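 Wheat seedlings sprayed to run-off with compound suspended in acetone/water with 250 ppm Trem 014, at 10, 40, 50 or 200 ppm (40–800 g ai/ha). Inoculated with Septoria tritici spores the next day, held 48 h saturated at 24 °C, then 21 days at 20 °C. Visual rating 0–100% disease control relative to controls.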

[3] = test system: Erysiphe graminis f. sp. tritici; experiment: Test E: wheat seedlings sprayed with test suspension, inoculated with Erysiphe graminis f. sp. tritici (wheat powdery mildew), visual disease rating
Procedure, shortened: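 Wheat seedlings sprayed to run-off with compound suspension (acetone 3%, acetone/water 50/50 with 250 ppm Trem 014) at 10, 40, 50 or 200 ppm (40–800 g ai/ha), inoculated next day with spore dust. Incubated 7 or 8 days at 20° C, then rated visually as % disease control relative to controls (0–100).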

[4] = Cmpd. No. unmarked, 100 = 100% disease control, 0 = no control relative to controls
[5] = Cmpd. No. marked '#' (other test rate; meaning of mark not shown)

| SMILES | Test B rating (% disease control) [1, 4] | Test A rating (% disease control) (Botrytis cinerea; [4]) | Test D rating (% disease control) [2, 4] | Test C rating (% disease control) (Septoria tritici; [4]) | Test E rating (% disease control) [3, 4] | Test B rating (% disease control) [1, 5] | Test A rating (% disease control) (Botrytis cinerea; [5]) | Test D rating (% disease control) [2, 5] | Test C rating (% disease control) (Septoria tritici; [5]) | Test E rating (% disease control) [3, 5] |
| --- | --- | --- | --- | --- | --- | --- | --- | --- | --- | --- |
| Cn1nc(C(F)F)c(C(=O)N(Cc2ccc(-n3ccc(C(F)(F)F)n3)cc2Cl)C2CC2)c1F [Compound 12, N-[[2-chloro-4-[3-(trifluoromethyl)-1H-pyrazol-1-yl]phenyl]methyl]-N-cyclopropyl-3-(difluoromethyl)-5-fluoro-1-methyl-1H-pyrazole-4-carboxamide] | 100% | 0% | 99% | 100% | 97% | – | – | – | – | – |
| Cn1nc(C(F)F)c(C(=O)N(Cc2ccc(-n3cc(Br)cn3)cc2Cl)C2CC2)c1F [compound 34] | 100% | 23% | 100% | 94% | 95% | – | – | – | – | – |
| Cn1cc(C(=O)N(Cc2ccc(-n3cc(Br)cn3)cc2Cl)C2CC2)c(C(F)F)n1 [Compound 10] | 99% | 0% | 86% | 38% | 0% | – | – | – | – | – |
| Cc1ccc(-n2ccc(C(F)(F)F)n2)cc1CN(C(=O)c1cn(C)nc1C(F)F)C1CC1 [compound 28] | 99% | 11% | 45% | 45% | 59% | – | – | – | – | – |
| CC(c1ccc(-n2ccc(C(F)(F)F)n2)nc1)N(C(=O)c1cn(C)nc1C(F)F)C1CC1 (stereo not drawn) [Compound 1, N-cyclopropyl-3-(difluoromethyl)-1-methyl-N-[1-[6-[3-(trifluoromethyl)-1H-pyrazol-1-yl]-3-pyridinyl]ethyl]-1H-pyrazole-4-carboxamide] | 0% | 0% | 0% | 86% | 96% | 69% | 0% | 28% | 93% | 98% |
| Cn1cc(C(=O)N(Cc2ccc(-n3cc(Cl)cn3)cn2)C2CC2)c(C(F)F)n1 [compound 6] | 0% | 0% | 0% | 9% | 0% | 98% | 0% | 28% | 67% | 13% |
| Cc1ccc(CN(C(=O)c2cn(C)nc2C(F)F)C2CC2)cc1-n1ccc(C(F)(F)F)n1 [compound 27] | 92% | 0% | 31% | 38% | 21% | – | – | – | – | – |
| Cn1cc(C(=O)N(Cc2ccc(-n3ccc(C(F)(F)F)n3)cc2Cl)C2CC2)c(C(F)F)n1 [compound 11] | 89% | 0% | 54% | 100% | 43% | – | – | – | – | – |
| Cn1cc(C(=O)N(Cc2cccc(-n3ccc(C(F)(F)F)n3)c2)C2CC2)c(C(F)(F)F)n1 [Compound 149] | 0% | 0% | 0% | 43% | 0% | – | – | – | – | – |
| Cn1nc(C(F)F)c(C(=O)N(Cc2ccc(-n3cc(Br)cn3)cc2Cl)C2CC2)c1Cl [compound 31] | 0% | 0% | 98% | 42% | 0% | – | – | – | – | – |

Reference: US10098350B2, “Fungicidal amides” (E. I. DU PONT DE NEMOURS AND COMPANY, priority 2013, dated 2018)
